Measured values published in patent publication US9533985B2, “Sulfonamide derivative and medicinal use thereof” (EA Pharma Co., Ltd., priority 2012, dated 2017).

Legend:
Type in all cases: cell-based
α4β7 integrin [1] = target: T1, α4β7 integrin (Homo sapiens (Human), UniProt P13612+P26010); experiment: MAdCAM-1/α4β7 integrin binding inhibitory activity evaluation test in the presence of serum (1); settings: RPMI-8866 cells binding to mouse MAdCAM-1/Fc, human serum at final concentration of 50%; read-out: α4β7 with serum added, IC50
Description: (§1) The ability of test substances to inhibit the binding of a human B cell line, RPMI-8866, which is known to express α4β7 integrin, to MAdCAM-1 was measured. To 96-well microtiter plates, recombinant mouse MAdCAM-1/Fc (R&D systems) solution (1 μg/mL) diluted with buffer A (carbonate buffer, pH 9.6) was added at 50 μL/well, followed by incubation at 4° C. overnight. After washing once with PBS, Block Ace (Snow Brand Milk Products Company, Limited) was added at 150 μL/well, followed by incubation at room temperature for 2 hours. After removal, washing was conducted once with PBS. 100 μL of each test substance diluted with a binding buffer (DMEM containing 40 mM HEPES, 0.2% BSA, and 4 mM MnCl2) to various concentrations and 100 μL of RPMI-8866 cells (2×10^6 cell/mL) were added to plates coated with MAdCAM-1/Fc (5×10^5 cells/well) with human serum being contained at a final concentration of 50%, followed by incubation at 30° C. for 15 minutes to 60 minutes. After the cells were bound to each well, unbound cells were removed by washing with PBS. To the plates, buffer C (PBS containing 1.5% Triton X-100) was added at 50 μL/well to lyse the bound RPMI-8866 cells. To 30 μL of the cell lysate, 30 μL of Substrate Buffer (Promega, CytoTox 96 Non-Radioactive Cytotoxicity Assay) was added, and the reaction was allowed to proceed at room temperature in a dark place for 30 minutes. To each well, 30 μL of Stop Solution (Promega, CytoTox 96 Non-Radioactive Cytotoxicity Assay) was added, and the absorbance at 490 nm was measured by using a plate reader. Here, by the obtained absorbance, the activity of the lactate dehydrogenase (LDH) dissolved into the supernatant of each well was detected. In other words, the absorbance was proportional to the number of the RPMI-8866 cells bound to MAdCAM-1 and remaining on the plate. The test was duplicated. The binding ratios of the cells at various concentrations were determined, with the absorbance of a well containing no test substance taken as 100%. Then, the concentration IC50, at which 50% binding inhibition was achieved, was calculated.

α4β7 integrin [2] = target: T1, α4β7 integrin; experiment: MAdCAM-1/α4β7 integrin binding inhibitory activity evaluation test (RPMI-8866 cell adhesion to MAdCAM-1/Fc); settings: for Selectivity: IC50 in VCAM-1/α4β1 test divided by IC50 in MAdCAM-1/α4β7 test; for IC50: RPMI-8866 cells binding to recombinant mouse MAdCAM-1/Fc, no serum
Description: as §1, with “systems) solution (0.75 μg/mL) diluted” for “systems) solution (1 μg/mL) diluted”, “A (carbonate buffer solution, pH 9.6)” for “A (carbonate buffer, pH 9.6)”, “diluted with binding buffer” for “diluted with a binding buffer”, “added to the plates coated” for “added to plates coated”, “MAdCAM-1/Fc (5×10^5 cells/well), followed by” for “MAdCAM-1/Fc (5×10^5 cells/well) with human serum being contained at a final concentration of 50%, followed by”, “was calculated. […] Note that the selectivity in the table was determined by dividing the IC50 value in VCAM-1/α4β1 Integrin Binding Inhibitory Activity Evaluation Test by the IC50 value in the MAdCAM-1/α4β7 integrin binding inhibitory activity evaluation test.” for “was calculated.”

α4β1 integrin = α4β1 integrin (Homo sapiens (Human), UniProt P05556+P13612); experiment: VCAM-1/α4β1 integrin binding inhibitory activity evaluation test (Jurkat cell adhesion to VCAM-1/Fc); settings: Jurkat cells binding to recombinant human VCAM-1/Fc
Description: The ability of test substances to inhibit the binding of a human T-cell line, Jurkat, which is known to express α4β1 integrin, to VCAM-1 was measured. To 96-well microtiter plates, recombinant human VCAM-1/Fc (R&D systems) solution (1 μg/mL) diluted with buffer A (carbonate buffer, pH 9.6) was added at 50 μL/well, followed by incubation at 4° C. overnight. After washing once with PBS, Block Ace (Snow Brand Milk Products Company, Limited) was added at 150 μL/well, followed by incubation at room temperature for 2 hours. After removal, washing was conducted once with PBS. 100 μL of each test substance diluted with a binding buffer (DMEM containing 40 mM HEPES, 0.2% BSA, and 4 mM MnCl2) to various concentrations and 100 μL of the Jurkat cells (2×10^6 cell/mL) were added to the plates coated with VCAM-1/Fc (5×10^5 cells/well), followed by incubation at 30° C. for 15 minutes to 60 minutes. After the cells were bound to each well, unbound cells were removed by washing with PBS. To the plates, buffer C (PBS containing 1.5% Triton X-100) was added at 50 μL/well to lyse the bound Jurkat cells. To 30 μL of the cell lysate, 30 μL of Substrate Buffer (Promega, CytoTox 96 Non-Radioactive Cytotoxicity Assay) was added, and the reaction was allowed to proceed at room temperature in a dark place for 30 minutes. To each well, 30 μL of Stop Solution (Promega, CytoTox 96 Non-Radioactive Cytotoxicity Assay) was added, and the absorbance at 490 nm was measured by using a plate reader. Here, by the obtained absorbance, the activity of the lactate dehydrogenase (LDH) dissolved into the supernatant of each well was detected. In other words, the absorbance was proportional to the number of the Jurkat cells bound to VCAM-1 and remaining on the plate. The test was duplicated. The binding ratios of the cells at various concentrations were determined, with the absorbance of a well containing no test substances taken as 100%. Then, the concentration IC50, at which 50% binding inhibition was achieved, was calculated. […] Note that, among the compounds synthesized in the corresponding Examples, the compounds in the free form (Compounds A-1 to A-39) were used as the test compounds. Hereinafter, the same shall apply.

Sequence of α4β1 integrin (P13612 34-1032): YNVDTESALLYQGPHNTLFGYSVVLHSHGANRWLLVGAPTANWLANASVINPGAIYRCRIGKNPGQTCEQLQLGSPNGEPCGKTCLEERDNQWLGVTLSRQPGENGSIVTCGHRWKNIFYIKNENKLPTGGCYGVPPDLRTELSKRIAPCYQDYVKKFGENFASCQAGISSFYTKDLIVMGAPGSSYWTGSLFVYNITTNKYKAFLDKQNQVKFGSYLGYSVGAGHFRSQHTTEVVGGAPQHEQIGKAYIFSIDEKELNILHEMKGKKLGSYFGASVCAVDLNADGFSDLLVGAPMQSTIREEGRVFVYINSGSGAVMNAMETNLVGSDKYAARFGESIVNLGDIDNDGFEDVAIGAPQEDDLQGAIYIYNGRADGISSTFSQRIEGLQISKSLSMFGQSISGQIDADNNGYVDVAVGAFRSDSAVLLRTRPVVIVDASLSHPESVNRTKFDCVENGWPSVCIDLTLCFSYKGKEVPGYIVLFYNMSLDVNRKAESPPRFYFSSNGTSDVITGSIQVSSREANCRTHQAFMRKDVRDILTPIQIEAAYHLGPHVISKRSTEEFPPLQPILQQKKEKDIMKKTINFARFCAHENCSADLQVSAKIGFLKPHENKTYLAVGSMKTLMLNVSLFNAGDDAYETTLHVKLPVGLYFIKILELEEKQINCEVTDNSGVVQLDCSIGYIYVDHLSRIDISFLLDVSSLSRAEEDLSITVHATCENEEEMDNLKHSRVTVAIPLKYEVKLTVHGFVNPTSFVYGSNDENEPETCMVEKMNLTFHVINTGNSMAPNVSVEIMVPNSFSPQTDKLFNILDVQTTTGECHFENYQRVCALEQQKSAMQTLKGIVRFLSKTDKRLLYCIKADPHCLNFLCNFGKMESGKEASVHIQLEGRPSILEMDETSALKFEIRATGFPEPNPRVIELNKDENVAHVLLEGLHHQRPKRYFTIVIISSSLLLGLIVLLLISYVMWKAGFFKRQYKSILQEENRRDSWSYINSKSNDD
Sequence of α4β1 integrin (P05556 21-798): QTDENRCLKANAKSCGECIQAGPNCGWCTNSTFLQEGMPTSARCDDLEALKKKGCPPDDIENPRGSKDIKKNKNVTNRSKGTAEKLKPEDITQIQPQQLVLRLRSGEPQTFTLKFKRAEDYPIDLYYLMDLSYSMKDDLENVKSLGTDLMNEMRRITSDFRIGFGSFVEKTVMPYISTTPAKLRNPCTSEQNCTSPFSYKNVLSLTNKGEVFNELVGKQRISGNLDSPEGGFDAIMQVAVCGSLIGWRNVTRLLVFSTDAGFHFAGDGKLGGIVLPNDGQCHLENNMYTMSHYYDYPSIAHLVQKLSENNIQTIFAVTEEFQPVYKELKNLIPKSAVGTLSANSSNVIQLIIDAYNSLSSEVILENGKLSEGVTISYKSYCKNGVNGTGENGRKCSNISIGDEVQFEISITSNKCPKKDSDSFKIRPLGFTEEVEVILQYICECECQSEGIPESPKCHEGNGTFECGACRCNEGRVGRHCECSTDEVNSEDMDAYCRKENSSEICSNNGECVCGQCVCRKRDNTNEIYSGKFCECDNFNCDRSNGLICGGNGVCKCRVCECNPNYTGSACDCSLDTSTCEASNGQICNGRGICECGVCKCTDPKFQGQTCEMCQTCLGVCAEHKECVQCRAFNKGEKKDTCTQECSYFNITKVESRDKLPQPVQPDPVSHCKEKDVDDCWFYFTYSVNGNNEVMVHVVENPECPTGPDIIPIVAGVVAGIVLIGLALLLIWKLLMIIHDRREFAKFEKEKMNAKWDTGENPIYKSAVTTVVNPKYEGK
T1 sequence (P13612 34-1032): as the sequence (P13612 34-1032) above
T1 sequence (P26010 20-798): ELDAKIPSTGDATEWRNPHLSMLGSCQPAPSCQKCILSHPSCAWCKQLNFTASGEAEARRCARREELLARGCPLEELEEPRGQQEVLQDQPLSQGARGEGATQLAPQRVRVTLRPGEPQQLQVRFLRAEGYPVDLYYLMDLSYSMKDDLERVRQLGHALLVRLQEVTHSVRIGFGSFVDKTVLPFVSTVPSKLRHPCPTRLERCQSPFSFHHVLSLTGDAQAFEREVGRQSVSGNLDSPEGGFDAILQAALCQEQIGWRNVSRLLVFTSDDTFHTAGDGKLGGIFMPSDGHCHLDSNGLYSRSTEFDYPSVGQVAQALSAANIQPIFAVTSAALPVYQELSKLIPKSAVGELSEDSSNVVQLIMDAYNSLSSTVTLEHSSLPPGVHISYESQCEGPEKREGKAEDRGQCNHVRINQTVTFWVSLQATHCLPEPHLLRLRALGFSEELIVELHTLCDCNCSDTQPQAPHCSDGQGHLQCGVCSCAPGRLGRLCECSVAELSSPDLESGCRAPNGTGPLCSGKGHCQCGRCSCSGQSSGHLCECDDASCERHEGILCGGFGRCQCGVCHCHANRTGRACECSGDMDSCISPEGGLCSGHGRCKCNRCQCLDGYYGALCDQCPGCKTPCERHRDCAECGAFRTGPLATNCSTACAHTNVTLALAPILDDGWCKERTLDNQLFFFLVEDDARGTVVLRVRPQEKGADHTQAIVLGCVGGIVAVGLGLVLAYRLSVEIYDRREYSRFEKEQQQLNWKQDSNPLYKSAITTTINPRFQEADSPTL

Row | Structure (SMILES) | IC50 (α4β7 integrin [1]) [nM] | Selectivity (α4β7 integrin [2]) | IC50 (α4β7 integrin [2]) [nM] | IC50 (α4β1 integrin) [nM]
1 | Cn1c(=O)n(-c2ccc(C[C@H](NC(=O)c3c(F)cc(NS(=O)(=O)c4ccc(-c5ccncc5)nc4)cc3F)C(=O)O)cc2)c(=O)c2ccncc21 [Example 42, N-{4-[(2,4′-Bipyridin-5-yl-sulfonyl)amino]-2,6-difluorobenzoyl}-4-(1-methyl-2,4-dioxo-1,4-dihydropyrido[3,4-d]pyrimidin-3(2H)-yl)-L-phenylalanine] | 8.8 | 190 | 0.27 | 52
2 | Cn1c(=O)n(-c2ccc(C[C@H](NC(=O)c3c(F)cc(NS(=O)(=O)c4ccc(-n5cccc5)cc4)cc3F)C(=O)O)cc2)c(=O)c2ccncc21 [Example 43, N-[2,6-Difluoro-4-({[4-(1H-pyrrol-1-yl)phenyl]sulfonyl}amino)benzoyl]-4-(1-methyl-2,4-dioxo-1,4-dihydropyrido[3,4-d]pyrimidin-3(2H)-yl)-L-phenylalanine] | 12 | 240 | 0.9 | 220
3 | CCNC(=O)c1ccc(S(=O)(=O)Nc2cc(F)c(C(=O)N[C@@H](Cc3ccc(-n4c(=O)ccn(C)c4=O)cc3)C(=O)O)c(F)c2)cc1 [Example 44, N-{4-[({4-[(Ethylamino)carbonyl]phenyl}sulfonyl)amino]-2,6-difluorobenzoyl}-4-(3-methyl-2,6-dioxo-3,6-dihydropyrimidin-1(2H)-yl)-L-phenylalanine] | 16 | 260 | 0.62 | 160
4 | Cn1ccc(=O)n(-c2ccc(C[C@H](NC(=O)c3c(F)cc(NS(=O)(=O)c4ccc(C(=O)NC5CC5)cc4)cc3F)C(=O)O)cc2)c1=O [Example 45, N-{4-[({4-[(Cyclopropylamino)carbonyl]phenyl}sulfonyl)amino]-2,6-difluorobenzoyl}-4-(3-methyl-2,6-dioxo-3,6-dihydropyrimidin-1(2H)-yl)-L-phenylalanine] | 21 | 520 | 0.97 | 500
5 | COc1cc2c(=O)n(-c3ccc(C[C@H](NC(=O)c4c(F)cc(NS(=O)(=O)c5ccc(-c6ncccn6)cc5)cc4F)C(=O)O)cc3)c(=O)n(C)c2cn1 [Example 46, N-(2,6-Difluoro-4-{[(4-pyrimidin-2-yl-phenyl)sulfonyl]amino}benzoyl)-4-(6-methoxy-1-methyl-2,4-dioxo-1,4-dihydropyrido[3,4-d]pyrimidin-3(2H)-yl)-L-phenylalanine] | 15 | 180 | 1.1 | 200
6 | CN(C)c1ccc2c(c1)c(=O)n(-c1ccc(C[C@H](NC(=O)c3c(F)cc(NS(=O)(=O)c4ccc(-n5cncn5)cc4)cc3F)C(=O)O)cc1)c(=O)n2C [Example 47, N-[2,6-Difluoro-4-({[4-(1H-1,2,4-triazol-1-yl)phenyl]sulfonyl}amino)benzoyl]-4-[6-(dimethylamino)-1-methyl-2,4-dioxo-1,4-dihydroquinazolin-3(2H)-yl]-L-phenylalanine] | 20 | 1100 | 0.32 | 340
7 | Cn1c(=O)n(-c2ccc(C[C@H](NC(=O)c3c(F)cc(NS(=O)(=O)c4ccc(-c5ncc[nH]5)cc4)cc3F)C(=O)O)cc2)c(=O)c2ccncc21 [Example 48, N-[2,6-Difluoro-4-({[4-(1H-imidazol-2-yl)phenyl]sulfonyl}amino)benzoyl]-4-(1-methyl-2,4-dioxo-1,4-dihydropyrido[3,4-d]pyrimidin-3(2H)-yl)-L-phenylalanine] | 14 | 230 | 0.24 | 54
8 | Cc1cc(-c2ccc(S(=O)(=O)Nc3cc(F)c(C(=O)N[C@@H](Cc4ccc(-n5c(=O)c6ccncc6n(C)c5=O)cc4)C(=O)O)c(F)c3)cc2)ccn1 [Example 49, N-[2,6-Difluoro-4-({[4-(2-methylpyridin-4-yl)phenyl]sulfonyl}amino)benzoyl]-4-(1-methyl-2,4-dioxo-1,4-dihydropyrido[3,4-d]pyrimidin-3(2H)-yl)-L-phenylalanine] | 25 | 770 | 0.43 | 330
9 | Cc1ccc(-c2ccc(S(=O)(=O)Nc3cc(F)c(C(=O)N[C@@H](Cc4ccc(-n5c(=O)c6ccncc6n(C)c5=O)cc4)C(=O)O)c(F)c3)cc2)cn1 [Example 50, N-[2,6-Difluoro-4-({[4-(6-methylpyridin-3-yl)phenyl]sulfonyl}amino)benzoyl]-4-(1-methyl-2,4-dioxo-1,4-dihydropyrido[3,4-d]pyrimidin-3(2H)-yl)-L-phenylalanine] | 19 | 560 | 0.32 | 180
10 | COc1ccc2c(c1)c(=O)n(-c1ccc(C[C@H](NC(=O)c3c(F)cc(NS(=O)(=O)c4ccc(-n5ccnn5)cc4)cc3F)C(=O)O)cc1)c(=O)n2C [Example 51, N-[2,6-Difluoro-4-({[4-(1H-1,2,3-triazol-1-yl)phenyl]sulfonyl}amino)benzoyl]-4-(6-methoxy-1-methyl-2,4-dioxo-1,4-dihydroquinazolin-3(2H)-yl)-L-phenylalanine] | 21 | 220 | 6.9 | 1500
